Experimental data published in patent publication US10000486B2 (priority 2012, dated 2018).
Structures can show the parent of a compound that is named as a salt.

Key:
[1] = test system: Lassa GP-pseudotyped-virus; test: microbe, parasite or virus in culture; assay type: cell-based, Lassa fever virus; conditions: Human immunodeficiency virus 1, read-out: Activity (EC50 in μM vs. pseudotyped virus) Lassa
[2] = test system: Machupo pseudotyped virus; test: organism not typed; assay type: cell-based; conditions: read-out: Activity (EC50 in μM vs. pseudotyped virus) Machupo
Junín pseudotyped virus = test: organism not typed; assay type: cell-based; conditions: read-out: Activity (EC50 in μM vs. pseudotyped virus) Junín
VSVg pseudotyped virus = test: organism not typed; assay type: cell-based; conditions: read-out: Activity (EC50 in μM vs. pseudotyped virus) VSVg

For CC(C)Oc1ccc(-n2cnc3cc(/C=C\c4ccc(C5(O)COC5)cc4)ccc32)cc1 [Compound 53, 3-[4-[(Z)-2-[1-(4-isopropoxyphenyl)benzimidazol-5-yl]vinyl]phenyl]oxetan-3-ol], the EC50 [1] was under 1 µM, the EC50 [2] was under 1 µM and the EC50 (Junín pseudotyped virus) was under 1 µM. For the same compound, the EC50 (VSVg pseudotyped virus) was 1 to 10 µM.

CCOc1ccc(-n2cnc3cc(/C=C/c4ccc(CC)cc4)ccc32)cc1 [Compound 1, 1-(4-ethoxyphenyl)-5-[(E)-2-(4-ethylphenyl)vinyl]benzimidazole] showed an EC50 [1] of under 1 µM, an EC50 [2] of under 1 µM and an EC50 (VSVg pseudotyped virus) of 10 to 50 µM.

Work on CC(C)Oc1ccc(-n2cnc3cc(/C=C/c4ccc(C(C)(C)C)cc4)ccc32)cc1 [Compound 6, 5-[(E)-2-(4-tert-butylphenyl)vinyl]-1-(4-isopropoxyphenyl)-benzimidazole] yielded an EC50 [1] of under 1 µM and an EC50 (VSVg pseudotyped virus) of 10 to 50 µM.

Work on CCOc1ccc(-n2c[n+]([O-])c3cc(NCc4ccc(CC)cc4)ccc32)cc1 [Compound 67, 1-(4-ethoxyphenyl)-N-[(4-ethylphenyl)-methyl]-3-oxido-benzimidazol-3-ium-5-amine] yielded an EC50 [1] of under 1 µM, an EC50 [2] of under 1 µM and an EC50 (Junín pseudotyped virus) of under 1 µM. For the same compound, the EC50 (VSVg pseudotyped virus) was 10 to 50 µM.

COc1ccc(-n2cnc3cc(/C=C/c4ccc(C(C)C)cc4)ccc32)cc1 [Compound 3, 5-[(E)-2-(4-isopropylphenyl)vinyl]-1-(4-methoxyphenyl)benzimidazole] was tested, and the EC50 [1] was 1 to 10 µM and the EC50 (VSVg pseudotyped virus) was 10 to 50 µM.

With CC(C)Oc1ccc(-n2cnc3cc(/C=C\c4ccc(C5(O)CCCCC5)cc4)ccc32)cc1 [Compound 57, 1-[4-[(Z)-2-[1-(4-isopropoxyphenyl)benzimidazol-5-yl]vinyl]phenyl]cyclohexanol] the EC50 [1] was under 1 µM, the EC50 [2] was under 1 µM and the EC50 (VSVg pseudotyped virus) was 1 to 10 µM.

Compound CCOc1ccc(-n2ccc3cc(NCc4ccc(CC)cc4)ccc32)cc1 [Compound 63, 1-(4-ethoxyphenyl)-N-[(4-ethylphenyl)-methyl]indol-5-amine] has an EC50 [1] of under 1 µM, an EC50 [2] of under 1 µM and an EC50 (VSVg pseudotyped virus) of 10 to 50 µM.

With CC(C)Oc1ccc(-n2cnc3cc(/C=C\c4ccc(CCC=O)cc4)ccc32)cc1 [Compound 44, 3-[4-[(Z)-2-[1-(4-isopropoxyphenyl)benzimidazol-5-yl]vinyl]phenyl]propanal] the EC50 [1] was under 1 µM and the EC50 (VSVg pseudotyped virus) was 10 to 50 µM.

CCOc1ccc(-n2cnc3ccc(CCc4ccc(CC)cc4)cc32)cc1 [Compound 35, 1-(4-ethoxyphenyl)-6-[2-(4-ethylphenyl)-ethyl]benzimidazole] showed an EC50 [1] of under 1 µM, an EC50 [2] of under 1 µM and an EC50 (VSVg pseudotyped virus) of 10 to 50 µM.

CC(C)Oc1ccc(-n2cnc3cc(/C=C\c4ccc(C5(O)CCCC5)cc4)ccc32)cc1 [Compound 56, 1-[4-[(Z)-2-[1-(4-isopropoxyphenyl)benzimidazol-5-yl]vinyl]phenyl]cyclopentanol] gave an EC50 [1] of under 1 µM, an EC50 [2] of under 1 µM and an EC50 (VSVg pseudotyped virus) of 1 to 10 µM.

CC(C)(C)Oc1ccc(-n2cnc3cc(/C=C/c4ccc(C(C)(C)C)cc4)ccc32)cc1 [Compound 16, 1-(4-tert-butoxyphenyl)-5-[(E)-2-(4-tert-butylphenyl)vinyl]benzimidazole] gave an EC50 [1] of 1 to 10 µM and an EC50 (VSVg pseudotyped virus) of 10 to 50 µM.

In the case of CC(C)Oc1ccc(-n2cnc3cc(/C=C\c4ccc(C(C)(O)C(=O)O)cc4)ccc32)cc1 (stereo not drawn) [Compound 55, 2-hydroxy-2-[4-[(Z)-2-[1-(4-isopropoxyphenyl)benzimidazol-5-yl]vinyl]phenyl]propanoic acid], the EC50 [1] is reported as under 1 µM and the EC50 (VSVg pseudotyped virus) is reported as over 50 µM.

CCOc1ccc(-n2cnc3cc(/C=C/c4ccc(C(C)(C)C)cc4)ccc32)nc1 [Compound 20, 5-[(E)-2-(4-tert-butylphenyl)vinyl]-1-(5-ethoxy-2-pyridyl)benzimidazole hydrochloride] gave an EC50 [1] of under 1 µM and an EC50 (VSVg pseudotyped virus) of 1 to 10 µM.

For CCOc1ccc(-n2cnc3cc(/C=C/c4ccc(CC)cc4)cnc32)cc1 [Compound 23, 3-(4-ethoxyphenyl)-6-[(E)-2-(4-ethylphenyl)vinyl]imidazo[4,5-b]pyridine], the EC50 [1] was 1 to 10 µM and the EC50 (VSVg pseudotyped virus) was over 50 µM.

For CCOc1ccc(-n2cnc3cc(/C=C/c4ccc(CC)cc4)ccc32)nc1 [Compound 18, 1-(5-ethoxy-2-pyridyl)-5-[(E)-2-(4-ethylphenyl)vinyl]benzimidazole hydrochloride], the EC50 [1] was under 1 µM, the EC50 (Junín pseudotyped virus) was 1 to 10 µM and the EC50 (VSVg pseudotyped virus) was 10 to 50 µM.

CC(C)Oc1ccc(-n2cnc3cc(/C=C\c4ccc(C(C)(O)C(F)(F)F)cc4)ccc32)cc1 (stereo not drawn) [Compound 46, 1,1,1-trifluoro-2-[4-[(Z)-2-[1-(4-isopropoxyphenyl)benzimidazol-5-yl]vinyl]phenyl]propan-2-ol] was tested, and the EC50 [1] was under 1 µM, the EC50 [2] was under 1 µM and the EC50 (VSVg pseudotyped virus) was 1 to 10 µM.

CC(C)Oc1ccc(-n2cnc3cc(/C=C\c4ccc(C(C)(C)C(F)(F)F)cc4)ccc32)cc1 [Compound 43, 1-(4-isopropoxyphenyl)-5-[(Z)-2-[4-(2,2,2-trifluoro-1,1-dimethyl-ethyl)phenyl]vinyl]benzimidazole] showed an EC50 [1] of under 1 µM, an EC50 [2] of under 1 µM and an EC50 (VSVg pseudotyped virus) of 1 to 10 µM.

Compound CC(C)Oc1ccc(-n2cnc3cc(/C=C\c4ccc(C#N)cc4)ccc32)cc1 [Compound 49, 4-[(Z)-2-[1-(4-isopropoxyphenyl)benzimidazol-5-yl]vinyl]benzonitrile] has an EC50 [1] of under 1 µM and an EC50 (VSVg pseudotyped virus) of 10 to 50 µM.

Compound CC(C)Oc1ccc(-n2cnc3cc(/C=C\c4ccc(C(C)(C)O)cc4)ccc32)nc1 [Compound 42, 2-[4-[(Z)-2-[1-(5-isopropoxy-2-pyridyl)benzimidazol-5-yl]vinyl]phenyl]propan-2-ol] has an EC50 [1] of under 1 µM, an EC50 [2] of under 1 µM and an EC50 (VSVg pseudotyped virus) of 1 to 10 µM.

In the case of CCOc1ccc(-n2cnc3cc(/C=C/c4ccc(C(C)(C)C)cc4)ccc32)cc1 [Compound 4, 5-[(E)-2-(4-tert-butylphenyl)vinyl]-1-(4-ethoxyphenyl)-benzimidazole], the EC50 [1] is reported as under 1 µM and the EC50 (VSVg pseudotyped virus) is reported as 10 to 50 µM.

CCOc1ccc(-n2ccc3cc(NCc4ccc(CC)cc4)cnc32)cc1 [Compound 66, 1-(4-ethoxyphenyl)-N-[(4-ethylphenyl)-methyl]pyrrolo[2,3-b]pyridin-5-amine] showed an EC50 [1] of under 1 µM, an EC50 [2] of 1 to 10 µM and an EC50 (VSVg pseudotyped virus) of over 50 µM.

Work on CCCCC(O)(CCCC)c1ccc(/C=C\c2ccc3c(c2)ncn3-c2ccc(OC(C)C)cc2)cc1 [Compound 41, 5-[4-[(Z)-2-[1-(4-isopropoxyphenyl)benzimidazol-5-yl]vinyl]phenyl]nonan-5-ol] yielded an EC50 [1] of under 1 µM, an EC50 [2] of under 1 µM and an EC50 (VSVg pseudotyped virus) of 10 to 50 µM.

With CC(C)Oc1ccc(-n2cnc3cc(/C=C\c4ccc(C(O)(C(F)(F)F)C(F)(F)F)cc4)ccc32)cc1 [Compound 47, 1,1,1,3,3,3-hexafluoro-2-[4-[(Z)-2-[1-(4-isopropoxyphenyl)benzimidazol-5-yl]vinyl]phenyl]propan-2-ol] the EC50 [1] was under 1 µM, the EC50 [2] was under 1 µM and the EC50 (VSVg pseudotyped virus) was 1 to 10 µM.

Work on COc1ccc(-n2cnc3cc(/C=C/c4ccc(C(C)C)cc4)cnc32)cc1 [Compound 25, 6-[(E)-2-(4-isopropylphenyl)vinyl]-3-(4-methoxyphenyl)imidazo[4,5-b]pyridine] yielded an EC50 [1] of 1 to 10 µM and an EC50 (VSVg pseudotyped virus) of over 50 µM.

CCc1ccc(/C=C/c2ccc3c(c2)ncn3-c2ccc(OC(C)(C)C)cc2)cc1 [Compound 14, 1-(4-tert-butoxyphenyl)-5-[(E)-2-(4-ethylphenyl)-vinyl]benzimidazole] showed an EC50 [1] of 1 to 10 µM and an EC50 (VSVg pseudotyped virus) of 10 to 50 µM.

Work on CCOc1ccc(Cn2cnc3cc(NCc4ccc(CC)cc4)cnc32)cc1 [Compound 62, 3-[(4-ethoxyphenyl)methyl]-N-[(4-ethylphenyl)-methyl]imidazo[4,5-b]pyridin-6-amine] yielded an EC50 [1] of 1 to 10 µM, an EC50 [2] of 1 to 10 µM and an EC50 (VSVg pseudotyped virus) of 1 to 10 µM.
